# Source: patent publication US11638427B2, “Methods and compositions for altering secondary metabolites in plants” (Impello Biosciences, Inc, priority 2020, dated 2023)
# Legend:
# [1] = test system: Colletotrichum gloeosporioides; assay: Mold growth on jasmonate-infused plates, mold 1 isolated from avocado; type: cell-based; settings: various concentrations in plates
# Experimental: (§1) MDJ (TCI, CAS No.: 24851-98-7) and CJ were infused into potato dextrose agar (PDA, VWR Cat No.: 90003-494) petri dishes (100×15 mm VWR, Cat No: 25384-094) at concentrations ranging from 1 mM, 4.25 mM, and 10 mM. Each treatment was prepared using a technical grade stock solution of pure chemical (CJ or MDJ) diluted with TWEEN®-20 (VWR, CAS No.: […]). Culturable oyster mushroom and seedling mold served to create fungal mycelial plugs using a sterile 1 mL pipette tip (Eppendorf, Cat No.: 022491458) held upside down. The tips were used to make circle excisions (i.e., fungal plugs) from a mycelial mat grown on PDA with no biochemical infusions. Fungal pugs were then transferred to PDA infused with varying concentrations of CJ or MDJ, and control plates (no CJ or MDJ infusion) to monitor fungal growth at room temperature over time.
# (§2) Based on the above results in Cannabis spp., additional fungi from various crops was sampled and tested. Plates comprising various concentrations of MDJ or MJ were prepared as described above.
# [2] = test system: Pencicillium sclerotigenum; assay: Mold growth on jasmonate-infused plates, mold isolated from sweet potato; type: cell-based; settings: 1 mM, 5 mM, 10 mM, or 20 mM in plates
# Experimental: as §1, §2
# pineapples = assay: Fruit MDJ spray till drip, 2 weeks observation; type: in vivo
# Experimental: For fruit MDJ dips, all fruits were purchased from a local market as certified organic on 4/13/2021. Before any treatments, all fruits were submerged in boiling water to melt off any non-natural waxy coating then dried with a washcloth. Once fruits were clean and dry, they were submerged in varying concentrations of methyl dihydrojasmonate solutions. Each solution was prepared from a 1M MDJ Tween 20 stock solution diluted with RO water. 500 ml of each solution was prepared and reused for the different fruits. Each fruit was submerged for 20 seconds and then left to dry on a paper towel. After the fruits were dry the paper towels were removed and fruits left on the lab bench at room temperature grouped by treatment but not touching and monitored for visual differences for 2 weeks. The pineapple was the only fruit that was not fully submerged but instead sprayed till drip with the varying concentration of MDJ/Tween 20 solution. Then left to dry and monitored the same as the other fruits.
# Treatments and Sample Sizes:
# Control, water—4 lemons, 2 oranges, 1 pineapple, 1 mango, 4 strawberries, 2 grapes (˜10 grapes/bundle), 2 oranges, 4 avocados […]
# Qualitative observations like color changes, firmness, mold appearance were monitored and at the end of the two weeks all fruits were cut in half to record and further observations. Penetrometer readings were recorded in the last week of observations.
# Fusarium ventricosum = assay: MDJ spray on cannabis 'Jack Herer' plants infected with Fusarium ventricosum; type: in vivo
# Experimental: To investigate the efficacy of MDJ at inhibiting Fusarium ventricosum, plants of the cannabis variety ‘Jack Herer’ were infected and treated with either 1 mM or 10 mM MDJ. Briefly, after two weeks in vegetative light cycle, ‘Jack Herer’ plants were moved to flowering cycle and sprayed with 1 mM or 10 mM methyl dihydrojasmonate on 4/12/21. After 72 hours (4/15/21) all plants were infected with Fusarium ventricosum cultured on potato dextrose agar. Plants were infected using a fungal pick to inoculate the fungal culture at the stem of the plant. No visual signs of infection were observed after two weeks, so all plants were reinfected using a PDA and liquid culture of F. ventricosum on 4/28/21 and again on 5/14/21. Plants were harvested and hung to dry on 6/11/21 and dry weights recorded on 6/16/21. After harvest, stem tissue was taken from each treatment group and plated onto potato dextrose agar. Fusarium ventricosum was reisolated from each group.
# Penicillium spp. = assay: Mold growth on jasmonate-infused plates, mold isolated from pineapple; type: cell-based; settings: 5 mM, 10 mM, or 20 mM in plates
# Experimental: as §1, §2
# oyster mushroom = assay: Fungal plug growth on jasmonate-infused PDA plates; type: cell-based; settings: all concentrations (1 mM, 4.25 mM, 10 mM) in PDA; 72 hours and 10 days
# Experimental: as §1
compound,measurement,setting,value
"CCCCCC1C(=O)CCC1CC(=O)OC (stereo not drawn) [MDJ, methyl dihydrojasmonate]",growth of mold isolated from avocado (mold 1),[1],effective at preventing the growth
same,growth of mold isolated from sweet potato,[2],effective at preventing the growth
same,crown appearance,"pineapples; spray till drip 20 mM, control had the greenest crown, followed by 5 mM",most dried out crown
same,mold at the base of the pineapple,"pineapples; spray till drip, control, 5 mM and 20 mM groups, one pineapple per group",showed some mold
same,flowers compared to the control,Fusarium ventricosum; 1 mM and 10 mM spray,larger flowers
same,leaves compared to the control,Fusarium ventricosum; 1 mM and 10 mM spray,"more yellow, wilting leaves"
same,plant biomass (dry weight) compared to the control group,Fusarium ventricosum; 1 mM and 10 mM spray 72 hours before infection,prevention in biomass reduction
same,growth of mold isolated from pineapple,Penicillium spp.,effective at preventing the growth
same,Oyster mushroom fungal growth compared to control,oyster mushroom,showed inhibition
